We go through eight compounds from US12186311B2, “Antiproliferative compounds and second active agents for combined use” (Celgene Corporation, priority 2019, dated 2025).

Assay [1] has as its system acute myeloid leukemia (AML). The settings on record: administered alone; cited from earlier work.
Assay [2] addresses T1, dopamine D2S receptor in transfected HEK-293 cells (Homo sapiens, UniProt P14416).
T1 construct: host or cells: HEK-293
Description: Dopamine D2S receptor binding at 10 μM. The settings on record: read-out: Dopamine D2S % Inh. (@10 uM). The protocol:
(§1) α1 Adrenergic and Dopamine D2 Receptors. Methods: Binding and functional assays for al adrenergic and dopamine D2 receptors were performed by Eurofins Cerep according to their methods.
Dopamine D2 Receptor. Binding at 10 μM. The binding assay evaluated the affinity of test articles for the dopamine D2 receptor in transfected human embryonic kidney (HEK)-293 cells. For determining the binding in the D2s receptor assay, test article was incubated with 0.3 nM [^3H] methylspiperone or 1 nM [^3H] 7-hydroxy-2-N,N-dipropylaminotetralin (7-OH-DPAT). [^3H] Methylspiperone at 0.3 nM also was used as control ligand in the D2L binding assay. Cell membrane homogenates were incubated in duplicate at room temperature for 60 minutes with ligand in the absence or presence of test articles at 10 μM. After the incubation period, samples were filtered through glass fiber filters, the filters dried and then counted for radioactivity using a scintillation counter. Results are expressed as mean percent inhibition of control radioligand binding.

For assay [3], the system named is non-selective α1 adrenergic receptor in rat cerebral cortex. Description: α1 adrenergic receptor binding at 10 μM ([3H]prazosin). To be noted: inhibition of control [3H]prazosin binding. The method, then: as §1
α1 Adrenergic Receptor. Binding at 10 μM. The binding assay evaluated the affinity of test article for the non-selective al adrenergic receptor in rat cerebral cortex. Membrane homogenates of cerebral cortex were incubated in duplicate for 60 minutes at room temperature with 0.25 nM [^3H]prazosin in the absence or presence of test articles at 10 μM. After the incubation period, samples were filtered through glass fiber filters, the filters dried and then counted for radioactivity using a scintillation counter. Results are expressed as mean percent inhibition of control radioligand binding.

The test system of assay [4] is OPM-2.P10 cells. Description: 7 day combination assay (Annexin V/7-AAD flow cytometry, fractional product method), OPM.2-P10. It counts as cell-based. To be noted: OPM-2.P10, 7 day assay. The method, then: (§2) Additional second agents, including DNA methyltransferase inhibitors, EZH2 inhibitors, DOT1L inhibitors, and BET inhibitors were selected for combination studies with Compound 2 in relapsed refractory multiple myeloma. Five MM cell lines with acquired or inherent resistance to lenalidomide or pomalidomide were included in the studies (OPM.2-P10, H929-1051, KMS12BM PR, L363, and JJN3). The effect of Compound 2 in combination with these second agents on MM cells were assessed in a 7 day in vitro assay. The MM cells were seeded at densities according to the growth rate of each cell line with the aim of achieving 50-100K cells by Day 7. The assay was performed in a 96-well plate. All MM cell lines were cultured in an incubator at 37° C. with 5% CO2 using the indicated cell culture media containing 1×Penicillin-Streptomycin. The MM cells were primed for 3 days with these second agents at the single agent IC50 value. […] Compound 2 was added to the cells at a dose range of 30 μM-0.00018 μM, depending on the cell line, for a 8 point dose response curve. The cells were incubated at 37° C. for an additional 4 days. At the end of the 7 day treatment, the MM cells were stained with Annexin V and 7-AAD and analyzed on a flow cytometer. Live MM cells were identified as Annexin V and 7-AAD double negative cells. […]

Assay [5] concerns H929-1051 cells. Description: 7 day combination assay (Annexin V/7-AAD flow cytometry, fractional product method), H929-1051. Format: cell-based. The settings on record: H929-1051, 7 day assay. The protocol: as §2
The test system of assay [6] is K12PE (parental) cell line. Description: Cell proliferation, combination with Compound 2, combination index (Calcusyn), K12PE. To be noted: 3 days. Format: cell-based. The protocol: (§3) K12PE (parental) and K12PE-PR (pomalidomide resistant) cell lines were treated with various doses of Compound 2 in combination with increasing doses of a BRD4 inhibitor JQ1 for 3 days. Cell proliferation was analyzed using thymidine incorporation assays. Combination index values were calculated by Calcusyn and values below 10^0 represented the synergy between the combination treatments. The results are shown in FIG. 3A (K12PE), FIG. 3B (K12PE combination index), FIG. 3C (K12PE-PR), and FIG. 3D (K12PE-PR combination index), respectively.
(§4) AMO1, AMO1-PR (pomalidomide resistant), K12PE and K12PE-PR (pomalidomide resistant) cell lines were treated with increasing doses of Compound 2 in combination with an AURKB inhibitor (AZD 1152). Changes in cell proliferation were studied in response to monotherapy and combinations at Day 3 post treatment. Combination index values were calculated by Calcusyn and values below […] represented the synergy between the combination treatments. AUKKB is one of the key target gene of MDMS8 (molecularly defined myeloma segment 8), a high risk cluster identified from myeloma genome project. The results are shown in FIG. 8A (AMO1 combination index), FIG. 8B (K12PE combination index), FIG. 8C (AMO1-PR combination index), and FIG. 8D (K12PE-PR combination index), respectively. […]

In assay [7] the test system is K12PE-PR (pomalidomide resistant) cell line. The experiment in a line: Cell proliferation, combination with Compound 2, combination index (Calcusyn), K12PE-PR. Format: cell-based. To be noted: 3 days. The protocol: as §3, §4
Assay [8] concerns AMO1-PR (pomalidomide resistant) cell line. Description: Cell proliferation, combination with Compound 2, combination index (Calcusyn), AMO1-PR. Format: cell-based. The settings on record: 3 days. The method, then: (§5) AMO1 (parental) and AMO1-PR (pomalidomide resistant) cell lines were treated with various doses of Compound 2 in combination with increasing doses of an MEK inhibitor trametinib for 3 days. Cell proliferation was analyzed using thymidine incorporation assays. Combination index values were calculated by Calcusyn and values below 10^0 represented the synergy between the combination treatments. The results are shown in FIG. 4A (AMO1), FIG. 4B (AMO1 combination index), FIG. 4C (AMO1-PR), and FIG. 4D (AMO1-PR combination index), respectively.
(§6) AMO1 and AMO1-PR (pomalidomide resistant) cell lines were treated with increasing doses of Compound 2 in combination with a PLK1 inhibitor (BI2536). Changes in cell proliferation were studied in response to monotherapy and combinations at Day 3 post treatment. Combination Index was calculated using Calcusyn based method. Combination index values were calculated by Calcusyn and values below 10^0 represented the synergy between the combination treatments. PLK1 is one of the key target gene of MDMS8 (molecularly defined myeloma segment 8), a high risk cluster identified from myeloma genome project. The results are shown in FIG. 6A (AMO1), FIG. 6B (AMO1 combination index), FIG. 6C (AMO1-PR), and FIG. 6D (AMO1-PR combination index), respectively. Inhibition of MDMS8 target gene PLK1 with Compound 2 is synergistic in AMO1 and AMO1-PR cells.
(§7) AMO1 and AMO1-PR (pomalidomide resistant) cell lines were treated with increasing doses of Compound 2 in combination with an NEK2 inhibitor (JH295). Changes in cell proliferation were studied in response to monotherapy and combinations at Day 3 post treatment. Combination index values were calculated by Calcusyn and values below 10^0 represented the synergy between the combination treatments. NEK2 is one of the key target gene of MDMS8 (molecularly defined myeloma segment 8), a high risk cluster identified from myeloma genome project. The results are shown in FIG. 7A (AMO1 combination index) and FIG. 7B (AMO1-PR combination index), respectively. Inhibition of MDMS8 target gene NEK2 with Compound 2 is synergistic in AMO1 and AMO1-PR cells.
(§8) AMO1, AMO1-PR (pomalidomide resistant), K12PE and K12PE-PR (pomalidomide resistant) cell lines were treated with increasing doses of Compound 2 in combination with an AURKB inhibitor (AZD 1152). […] Combination index values were calculated by Calcusyn and values below […] represented the synergy between the combination treatments. […]
(§9) AMO1, AMO1-PR (pomalidomide resistant) cell lines were treated with increasing doses of Compound 2 in combination with a BIRC5 inhibitor (YM155). […] Combination index values were calculated by Calcusyn and values below 10^0 represented the synergy between the combination treatments. […]

Assay [9] concerns AMO1 (parental) cell line. Description: Cell proliferation, combination with Compound 2, combination index (Calcusyn), AMO1. The settings on record: AMO1, 3 days. It counts as cell-based. The protocol:
as §5, §6, §7, §8, §9

Assay [10] relates to H929 cell line. The experiment in a line: Thymidine incorporation, combination with Compound 2, combination index (Calcusyn), H929. It counts as cell-based. The settings on record: H929, 3 days. The protocol:
H929 cell line was treated with various doses of Compound 2 in combination with increasing doses of an EZH2 inhibitor UNC1999 for 3 days. Cell proliferation was analyzed using thymidine incorporation assays. Combination index values were calculated by Calcusyn and values below 10^0 represented the synergy between the combination treatments. The results are shown in FIG. 5A (H929) and FIG. 5B (H929 combination index).

T1 sequence (P14416 1-414 isoform P14416-2): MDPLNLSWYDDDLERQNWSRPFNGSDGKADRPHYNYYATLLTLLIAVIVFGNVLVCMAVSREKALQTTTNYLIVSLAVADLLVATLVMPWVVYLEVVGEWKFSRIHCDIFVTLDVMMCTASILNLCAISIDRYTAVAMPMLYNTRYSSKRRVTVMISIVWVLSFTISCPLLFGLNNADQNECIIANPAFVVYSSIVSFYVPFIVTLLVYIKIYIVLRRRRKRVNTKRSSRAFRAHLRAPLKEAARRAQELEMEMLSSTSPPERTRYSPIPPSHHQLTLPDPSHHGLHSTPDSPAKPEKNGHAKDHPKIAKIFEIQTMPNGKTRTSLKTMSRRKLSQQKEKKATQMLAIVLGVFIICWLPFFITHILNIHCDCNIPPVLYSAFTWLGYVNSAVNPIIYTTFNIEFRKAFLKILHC

On to “CT-011: anti-PD-1 antibody, a humanized antibody”, for which, in assay [1], the “response in treating acute myeloid leukemia (AML) at relapse” value is “failed to show response”.
Take `N#Cc1ccc(N2CCN(Cc3ccc(COc4cccc5c4CN(C4CCC(=O)NC4=O)C5=O)cc3)CC2)c(F)c1` (racemic) [Compound 1, 4-(4-(4-(((2-(2,6-dioxopiperidin-3-yl)-1-oxoisoindolin-4-yl)oxy)methyl)benzyl)piperazin-1-yl)-3-fluorobenzonitrile]: in assay [2], the inhibition at 10 µM came out at 55%. Moreover, in assay [3], the “Adrenergic α1 % Inh. (@10 uM)” value is 67%.
With `Cn1cc(-c2cc(S(C)(=O)=O)ccc2OCC2CC2)c2ccccc2c1=O` [Compound C, 4-[2-(cyclopropylmethoxy)-5-(methanesulfonyl)phenyl]-2-methylisoquinolin-1(2H)-one], the “synergy in combination with Compound 2” value in assay [4] and in assay [5] was “significant synergy” throughout.
In the case of `Cc1sc2c(c1C)C(c1ccc(Cl)cc1)=N[C@@H](CC(=O)OC(C)(C)C)c1nnc(C)n1-2` [JQ1, (S)-tert-butyl 2-(4-(4-chlorophenyl)-2,3,9-trimethyl-6H-thieno[3,2-f][1,2,4]triazolo[4,3-a][1,4]diazepin-6-yl)acetate], the “synergy with Compound 2 (combination index)” value (shortened to “synergy … (combination index)”) in [6] and in [7] was “synergistic activity with Compound 2” each time.
As for `CCN(CCCOc1ccc2c(Nc3cc(CC(=O)Nc4cccc(F)c4)[nH]n3)ncnc2c1)CCOP(=O)(O)O` [AZD 1152], the “synergy … (combination index)” value in assay [6], in assay [8], in assay [9] and in assay [7] was “synergistic” in each case.
Regarding `O=C1CCC(N2Cc3c(OCc4ccc(CN5CCN(c6ccc(F)cc6F)CC5)cc4)cccc3C2=O)C(=O)N1` (racemic) [Compound A, 3-(4-((4-((4-(2,4-difluorophenyl)piperazin-1-yl)methyl)benzyl)oxy)-1-oxoisoindolin-2-yl)piperidine-2,6-dione], the inhibition at 10 µM in assay [2] was found to be 99%. Besides, the “Adrenergic α1 % Inh. (@10 uM)” value in assay [3] is 102%.
Turning to `N#Cc1ccc(N2CCN(Cc3ccc(COc4cccc5c4CN([C@H]4CCC(=O)NC4=O)C5=O)cc3)CC2)c(F)c1` [Compound 2, (S)-4-(4-(4-(((2-(2,6-dioxopiperidin-3-yl)-1-oxoisoindolin-4-yl)oxy)methyl)benzyl)piperazin-1-yl)-3-fluorobenzonitrile], the inhibition at 10 µM in assay [2] worked out at 52%. Moreover, in assay [3], the “Adrenergic α1 % Inh. (@10 uM)” value came to 62%.
`CCCc1cc(C)[nH]c(=O)c1CNC(=O)c1cc(-c2ccc(N3CCN(C(C)C)CC3)nc2)cc2c1cnn2C(C)C` [UNC1999, 1-Isopropyl-6-(6-(4-isopropylpiperazin-1-yl)pyridin-3-yl)-N-((6-methyl-2-oxo-4-propyl-1,2-dihydropyridin-3-yl)methyl)-1H-indazole-4-carboxamide]: in assay [10], the “synergy … (combination index)” value is “synergistic activity with Compound 2”.
